In patent publication US20230093099A1, “COMPOUNDS AND METHODS OF TREATING CANCERS” (CULLGEN (SHANGHAI), INC., priority 2019, published 2023):
pIC50: −log10 of the molar value.

These compounds were tested on RS4;11 cells (assay: Cell viability assay (CellTiter-Glo) in RS4;11 cells). Conditions: Homo sapiens, 72 h; RS4;11 cells; cell viability, 3 days, CellTiter-Glo; read-out: IC50.
Format: cell-based
Experimental: Specific exemplary heterobifunctional compounds were first characterized using cell viability assays. RS4;11 ALL cells were treated with bifunctional degraders for three days. The IC50 values ranged from 2 nM to over 10 uM.
MV4;11, RS4;11, Kasumi-1, HEL and other cells were treated with NVP-BSK805, TG101209 or selected degraders for 3 days at indicated concentrations following a 3-fold serial dilution.
HEL, RS4;11, MV4;11, Kasumi-1 and other cells were cultured at 37° C. with 5% CO2 in RPMI 1640 or DMEM Medium supplemented with 10% fetal bovine serum. Cells were authenticated using the short tandem repeat (STR) assays. Mycoplasma test results were negative.
Cells were seeded at a density of 5000 cells per well in 96-well assay plates and treated with test compounds following a 8-point or 12-point 3-fold serial dilution. Three days later, cell viability was determined using the CellTiter-Glo assay kit according to the manufacturer's instructions. The dose-response curves were determined and IC50 values were calculated using the GraphPad Prism software following a nonlinear regression (least squares fit) method.

Cc1ncsc1-c1ccc(CNC(=O)[C@@H]2C[C@@H](O)CN2C(=O)[C@@H](NC(=O)CCOCCOCCNC(=O)CN2CCC(n3cc(-c4cnc5cccc(-c6cc(F)c(CN7CCOCC7)c(F)c6)c5n4)cn3)CC2)C(C)(C)C)cc1 [JA-162, (2S,4R)-1-((S)-14-(tert-Butyl)-1-(4-(4-(8-(3,5-difluoro-4-(morpholinomethyl)phenyl)quinoxalin-2-yl)-1H-pyrazol-1-yl)piperidin-1-yl)-2,12-dioxo-6,9-dioxa-3,13-diazapentadecan-15-oyl)-4-hydroxy-N-(4-(4-methylthiazol-5-yl)benzyl)pyrrolidine-2-carboxamide] and Cc1ncsc1-c1ccc(CNC(=O)[C@@H]2C[C@@H](O)CN2C(=O)[C@@H](NC(=O)CCOCCNC(=O)CN2CCC(n3cc(-c4cnc5cccc(-c6cc(F)c(CN7CCOCC7)c(F)c6)c5n4)cn3)CC2)C(C)(C)C)cc1 [JA-160, (2S,4R)-1-((S)-2-(3-(2-(2-(4-(4-(8-(3,5-Difluoro-4-(morpholinomethyl)phenyl)quinoxalin-2-yl)-1H-pyrazol-1-yl)piperidin-1-yl)acetamido)ethoxy)propanamido)-3,3-dimethylbutanoyl)-4-hydroxy-N-(4-(4-methylthiazol-5-yl)benzyl)pyrrolidine-2-carboxamide] cannot be ordered by pIC50: under 5.00 for the first, under 5.00 for the second.

Compared with CS(=O)(=O)c1ccc(-c2cccc3nc(Nc4ccc(N5CCN(CC(=O)NCCOCCOCCOCCOCCOCCNc6cccc7c6C(=O)N(C6CCC(=O)NC6=O)C7=O)CC5)cc4)nn23)cc1 (stereo not shown) [JA-129, N-(17-((2-(2,6-Dioxopiperidin-3-yl)-1,3-dioxoisoindolin-4-yl)amino)-3,6,9,12,15-pentaoxaheptadecyl)-2-(4-(4-((5-(4-(methylsulfonyl)phenyl)-[1,2,4]triazolo[1,5-a]pyridin-2-yl)amino)phenyl)piperazin-1-yl)acetamide], CS(=O)(=O)c1ccc(-c2cccc3nc(Nc4ccc(N5CCN(CC(=O)NCCOCCOCCNc6cccc7c6C(=O)N(C6CCC(=O)NC6=O)C7=O)CC5)cc4)nn23)cc1 (stereo not shown) [JA-115, N-(2-(2-(2-((2-(2,6-Dioxopiperidin-3-yl)-1,3-dioxoisoindolin-4-yl)amino)ethoxy)ethoxy)ethyl)-2-(4-(4-((5-(4-(methylsulfonyl)phenyl)-[1,2,4]triazolo[1,5-a]pyridin-2-yl)amino)phenyl)piperazin-1-yl)acetamide] is higher in pIC50: under 5.00 for the first, 5.67 for the second.

CS(=O)(=O)c1ccc(-c2cccc3nc(Nc4ccc(N5CCN(CC(=O)NCCCCCNc6ccc7c(c6)C(=O)N(C6CCC(=O)NC6=O)C7=O)CC5)cc4)nn23)cc1 (stereo not shown) [JA-204, N-(5-((2-(2,6-Dioxopiperidin-3-yl)-1,3-dioxoisoindolin-5-yl)amino)pentyl)-2-(4-(4-((5-(4-(methylsulfonyl)phenyl)-[1,2,4]triazolo[1,5-a]pyridin-2-yl)amino)phenyl)piperazin-1-yl)acetamide] and O=C(CN1CCC(n2cc(-c3cnc4cccc(-c5cc(F)c(CN6CCOCC6)c(F)c5)c4n3)cn2)CC1)NCCCCNc1cccc2c1C(=O)N(C1CCC(=O)NC1=O)C2=O (stereo not shown) [JA-146, 2-(4-(4-(8-(3,5-Difluoro-4-(morpholinomethyl)phenyl)quinoxalin-2-yl)-1H-pyrazol-1-yl)piperidin-1-yl)-N-(4-((2-(2,6-dioxopiperidin-3-yl)-1,3-dioxoisoindolin-4-yl)amino)butyl)acetamide] cannot be ordered by pIC50: under 5.00 for the first, under 5.00 for the second.

O=C1CCC(N2C(=O)c3cccc(NCCCCC(=O)N4CCC(n5cc(-c6cnc7cccc(-c8cc(F)c(CN9CCOCC9)c(F)c8)c7n6)cn5)CC4)c3C2=O)C(=O)N1 (stereo not shown) [JA-003, 4-[[5-[4-[4-[8-[3,5-Difluoro-4-(morpholinomethyl)phenyl]quinoxalin-2-yl]pyrazol-1-yl]-1-piperidyl]-5-oxo-pentyl]amino]-2-(2,6-dioxo-3-piperidyl)isoindoline-1,3-dione] was tested, and the pIC50 was 5.18.
